Tested on: DNA repair protein genes
Test: DNA chip mRNA expression in yeast, DNA repair protein genes (Table 3)
Type: cell-based, Saccharomyces cerevisiae S288C
Conditions: incubated two hours, concentrations as in the 1st table
Method: Yeast (Saccharomyces cerevisiae S288C (α SUC2mal mel gap2 CUP1)) were incubated at 25° C. on YPD medium (yeast extract 1%, polypepton 2%, glucose 2%). One of toxic chemical substances was added to the cells at logarithmic growth phase, and the cells were further incubated for two hours. Cells were cultured without any chemical substance in the same condition, and were used as control. Concentrations of the chemical substances were defined to inhibit the growth of the yeast but not lead to death.
After completion of the incubation, the culture was centrifuged to collect the cells. To the cells, sodium acetate buffer (50 mM sodium acetate, 10 mM EDTA, 1% SDS) was added, and the mixture was shaken at 65° C. for five minutes, followed by returning to room temperature, and obtaining the supernatant, of which the procedures were repeated two times. To the supernatant, ½ amount of a solution of phenol/chloroform was added, and the mixture was centrifuged to give a supernatant, which was added with an equal amount of chloroform, and the mixture was centrifuged to give a supernatant. To the supernatant, an equal amount of isopropanol containing 0.3 M sodium acetate was added, and the mixture was allowed to stand at room temperature for 30 minutes, after which the mixture was centrifuged to give a sediment of the whole RNAs. Seventy % ethanol was added to the sediment, and the mixture was again centrifuged to give a sediment, which was then dried and dissolved in water. mRNA was isolated from the whole RNAs as followings. In view of the fact that a poly A chain is attached to the 3′ terminus of mRNA, a polynucleotide having a poly T structure which was immobilized on the surface of latex beads was used to trap the mRNA, and then the mRNA was washed and eluted with spine column (Oligotex-dT30<Super>mRNA Purification Kit, Takara). Reverse transcription of the mRNA was conducted with a reverse transcriptase (Super Script II Reverse Transcriptase; catalogue No. 18064-014, GibcoBRL) using fluorescence-labeled nucleotides to give cDNAs that were introduced with Cy3-dUTP or Cy5-dUTP during the reverse transcription.
The labeled cDNAs were dissolved in TE buffer (10mM Tris-HCl/1 mM EDTA, pH8.0), and the solution was dropped on the DNA chip containing the whole genes of yeast (DNA Chip Research Inc. Japan) so that the cDNAs were hybridized on the DNA chip at 65° C. for over 12 hours. The fluoresces intensity of the DNA chip was read with a scanner, and the ratio relative to the fluorescence intensity resulting from the absence of chemical substance was estimated as the following, which is shown in Tables 1 to 9: […]

SMILES: [Cl][Hg][Cl] [(3), HgCl2]
- The level of expressed mRNA in the presence of chemical substance/The level of expressed mRNA in the absence of chemical substance (yeast gene YAL015C): 1.7
- The level of expressed mRNA in the presence of chemical substance/The level of expressed mRNA in the absence of chemical substance (yeast gene YAR007C): 0.8
- The level of expressed mRNA in the presence of chemical substance/The level of expressed mRNA in the absence of chemical substance (yeast gene YBL019W): 0.7
- The level of expressed mRNA in the presence of chemical substance/The level of expressed mRNA in the absence of chemical substance (yeast gene YBR073W): 0.9
- The level of expressed mRNA in the presence of chemical substance/The level of expressed mRNA in the absence of chemical substance (yeast gene YBR272C): 1.3
- The level of expressed mRNA in the presence of chemical substance/The level of expressed mRNA in the absence of chemical substance (yeast gene YCR014C): 0.8
- The level of expressed mRNA in the presence of chemical substance/The level of expressed mRNA in the absence of chemical substance (yeast gene YDL017W): 1.2
- The level of expressed mRNA in the presence of chemical substance/The level of expressed mRNA in the absence of chemical substance (yeast gene YDL059C): 1.4
- The level of expressed mRNA in the presence of chemical substance/The level of expressed mRNA in the absence of chemical substance (yeast gene YDL200C): 1.2
- The level of expressed mRNA in the presence of chemical substance/The level of expressed mRNA in the absence of chemical substance (yeast gene YDR054C): 0.7
- The level of expressed mRNA in the presence of chemical substance/The level of expressed mRNA in the absence of chemical substance (yeast gene YDR369C): 2.4
- The level of expressed mRNA in the presence of chemical substance/The level of expressed mRNA in the absence of chemical substance (yeast gene YEL019C): 0.3
- The level of expressed mRNA in the presence of chemical substance/The level of expressed mRNA in the absence of chemical substance (yeast gene YEL037C): 0.9
- The level of expressed mRNA in the presence of chemical substance/The level of expressed mRNA in the absence of chemical substance (yeast gene YER162C): 1.0
- The level of expressed mRNA in the presence of chemical substance/The level of expressed mRNA in the absence of chemical substance (yeast gene YFL014W): 5.7
- The level of expressed mRNA in the presence of chemical substance/The level of expressed mRNA in the absence of chemical substance (yeast gene YGL058W): 0.6
- The level of expressed mRNA in the presence of chemical substance/The level of expressed mRNA in the absence of chemical substance (yeast gene YGL091C): 1.0
- The level of expressed mRNA in the presence of chemical substance/The level of expressed mRNA in the absence of chemical substance (yeast gene YGL127C): 1.3
- The level of expressed mRNA in the presence of chemical substance/The level of expressed mRNA in the absence of chemical substance (yeast gene YGL163C): 0.6
- The level of expressed mRNA in the presence of chemical substance/The level of expressed mRNA in the absence of chemical substance (yeast gene YGL249W): 0.5
- The level of expressed mRNA in the presence of chemical substance/The level of expressed mRNA in the absence of chemical substance (yeast gene YGR180C): 1.9
- The level of expressed mRNA in the presence of chemical substance/The level of expressed mRNA in the absence of chemical substance (yeast gene YGR231C): 0.7
- The level of expressed mRNA in the presence of chemical substance/The level of expressed mRNA in the absence of chemical substance (yeast gene YGR258C): 0.7
- The level of expressed mRNA in the presence of chemical substance/The level of expressed mRNA in the absence of chemical substance (yeast gene YHR164C): 0.9
- The level of expressed mRNA in the presence of chemical substance/The level of expressed mRNA in the absence of chemical substance (yeast gene YIL036W): 1.3
- The level of expressed mRNA in the presence of chemical substance/The level of expressed mRNA in the absence of chemical substance (yeast gene YIL072W): 1.1
- The level of expressed mRNA in the presence of chemical substance/The level of expressed mRNA in the absence of chemical substance (yeast gene YIL143C): 1.1
- The level of expressed mRNA in the presence of chemical substance/The level of expressed mRNA in the absence of chemical substance (yeast gene YIL153W): 1.3
- The level of expressed mRNA in the presence of chemical substance/The level of expressed mRNA in the absence of chemical substance (yeast gene YIR002C): 0.5
- The level of expressed mRNA in the presence of chemical substance/The level of expressed mRNA in the absence of chemical substance (yeast gene YJL026W): 2.9
- The level of expressed mRNA in the presence of chemical substance/The level of expressed mRNA in the absence of chemical substance (yeast gene YJR046W): 1.2
- The level of expressed mRNA in the presence of chemical substance/The level of expressed mRNA in the absence of chemical substance (yeast gene YJR052W): 1.1
- The level of expressed mRNA in the presence of chemical substance/The level of expressed mRNA in the absence of chemical substance (yeast gene YKL145W): 1.2
- The level of expressed mRNA in the presence of chemical substance/The level of expressed mRNA in the absence of chemical substance (yeast gene YLR103C): 1.1
- The level of expressed mRNA in the presence of chemical substance/The level of expressed mRNA in the absence of chemical substance (yeast gene YLR233C): 2.0
- The level of expressed mRNA in the presence of chemical substance/The level of expressed mRNA in the absence of chemical substance (yeast gene YLR288C): 1.6
- The level of expressed mRNA in the presence of chemical substance/The level of expressed mRNA in the absence of chemical substance (yeast gene YML032C): 1.1
- The level of expressed mRNA in the presence of chemical substance/The level of expressed mRNA in the absence of chemical substance (yeast gene YML058W): 5.8
- The level of expressed mRNA in the presence of chemical substance/The level of expressed mRNA in the absence of chemical substance (yeast gene YMR035W): 1.5
- The level of expressed mRNA in the presence of chemical substance/The level of expressed mRNA in the absence of chemical substance (yeast gene YMR072W): 1.4
- The level of expressed mRNA in the presence of chemical substance/The level of expressed mRNA in the absence of chemical substance (yeast gene YMR096W): 1.1
- The level of expressed mRNA in the presence of chemical substance/The level of expressed mRNA in the absence of chemical substance (yeast gene YMR284W): 0.5
- The level of expressed mRNA in the presence of chemical substance/The level of expressed mRNA in the absence of chemical substance (yeast gene YNL213C): 0.9
- The level of expressed mRNA in the presence of chemical substance/The level of expressed mRNA in the absence of chemical substance (yeast gene YNL250W): 0.8
- The level of expressed mRNA in the presence of chemical substance/The level of expressed mRNA in the absence of chemical substance (yeast gene YNL261W): 0.6
- The level of expressed mRNA in the presence of chemical substance/The level of expressed mRNA in the absence of chemical substance (yeast gene YNL312W): 1.6
- The level of expressed mRNA in the presence of chemical substance/The level of expressed mRNA in the absence of chemical substance (yeast gene YOL043C): 0.8
- The level of expressed mRNA in the presence of chemical substance/The level of expressed mRNA in the absence of chemical substance (yeast gene YOR005C): 1.0
- The level of expressed mRNA in the presence of chemical substance/The level of expressed mRNA in the absence of chemical substance (yeast gene YOR386W): 1.3
- The level of expressed mRNA in the presence of chemical substance/The level of expressed mRNA in the absence of chemical substance (yeast gene YPL022W): 0.7
- The level of expressed mRNA in the presence of chemical substance/The level of expressed mRNA in the absence of chemical substance (yeast gene YPL164C): 1.1
- The level of expressed mRNA in the presence of chemical substance/The level of expressed mRNA in the absence of chemical substance (yeast gene YPL194W): 0.4
- The level of expressed mRNA in the presence of chemical substance/The level of expressed mRNA in the absence of chemical substance (yeast gene YPR025C): 0.6
